Like-named read-outs stand apart in the source and are kept apart here.
Legend:
[1] = tested on: xenografted human melanoma cells; settings: immunodeficient mice; cited from earlier work
[2] = tested on: B-RAF- and K-RAS-induced lung cancer; settings: mouse models of B-RAF- and K-RAS-induced lung cancer; cited from earlier work
murine melanoma cells = settings: in vivo administration; cited from earlier work
melanoma = settings: other melanoma models; cited from earlier work
[3] = tested on: ROS production of WT lung cells; settings: in vitro, HDC 10-1,000 μmol/L added 5 minutes before WKYMVm
Protocol: (§2) Superoxide anion production was determined by use of the isoluminol-electrogenerated chemiluminescence technique as described elsewhere. Briefly, single-cell suspensions of lungs were diluted to 10^7 cells/mL in Krebs-Ringer glucose buffer supplemented with isoluminol (10 mg/mL; Sigma-Aldrich) and horseradish peroxidase (HRP, 4 U/mL, Boehringer) and added to 96-well plates that were incubated at 37° C. Phorbol myristate acetate (PMA, 5×10^−8 M, Sigma-Aldrich) or the formyl peptide receptor agonist Trp-Lys-Tyr-Met-Val-D-Met (WKYMVm) (10^−5 M, Tocris Bioscience) were added for induction of ROS production. Light emission was recorded continuously using a FLUOstar Omega plate reader (BMG). In some experiments, HDC (10-1,000 μmol/L, final concentrations) was added 5 minutes prior to the addition of WKYMVm.

B16F1 cells = settings: 200,000 cells in WT, 300,000 in Nox2-/- mice; 3 weeks
Protocol: (§1) C57BL/6 mice were obtained from The Charles River Laboratories. B6.129S6-Cybb^tm1Din(Nox2^−/− or Nox2-KO) mice that lack the myeloid gp91^phox subunit NOX2 and, thus, a functional ROS-forming NOX2 were obtained from The Jackson Laboratory. […] Naïve C57BL/6, Nox2-KO, and Ifng-KO mice (6-12 weeks of age) were treated intraperitoneally (i.p.) with PBS (control), HDC (Sigma, 1,500 μg/mouse), IL15 (0.04 μg/mouse), alone or combined, on the day before, the day after, and 3 days after intravenous (i.v.) inoculation of B16F10 cells (5×10^4-15×10^4 cells/mouse) or B16F1 cells (20×10^4-30×10^4 cells/mouse). Three weeks after tumor inoculation, mice were euthanized by cervical dislocation followed by harvesting of lungs and spleens. Lung metastasis was determined by counting visible pulmonary metastatic foci under a light microscope. The experimental design is outlined in FIG. 1A.

NK cells = settings: WT mice, 3 weeks after tumor cell inoculation; % of live CD45+ cells
Protocol: as §1

lung NK cells = assay: IFNγ production ex vivo in cocultures of lung cells and B16 cells (ELISA); set-up: species or system mouse; settings: WT mice treated with HDC in vivo; lungs 30 minutes after B16F10 inoculation; coculture with B16 cells
Protocol: Mice were pretreated with HDC (1,500 μg) or PBS on the day before i.v. inoculation of B16F10 cells. Thirty minutes after tumor cell inoculation mice were sacrificed and single-cell lung cell suspensions were prepared. Lung cells were cocultured overnight with B16 cells (500,000 cells/mL) in flat bottom 96-well plates at effector:target cell ratios of 1:1 to 50:1. Supernatants were collected after 24 hours and the IFNγ content was determined by ELISA (Mouse IFNγ DuoSet ELISA, R&D Systems).

CD11b+Gr1+ myeloid cells = settings: WT mice, HDC 24 hours before B16F10 inoculation
Protocol: (§3) For assessment of the impact of NOX2 inhibition on immune parameters during the early phase of tumor progression, mice received HDC at 1,500 μg/mouse or PBS (control) 1 day before the inoculation of B16F10 cells followed by dissection of lungs at 30 minutes or 24 hours after tumor cell inoculation as shown in FIG. 2A.
(§4) Lung tissues were dissociated into single cells by combining enzymatic degradation of extracellular matrix with mechanical dissociation using gentle MACS Technology (Miltenyi Biotech) based on instructions provided by the manufacturer.
The following fluorochrome-labeled antimouse mAbs were purchased from BD Biosciences: anti-CD45 (30-F11), anti-CD11c (HL3), anti-IaIe (2G9), anti-CD3 (145-2311), anti-CD4 (RM4-5), anti-CD8 (53-6.7), anti-NK1.1 (PK136), anti-CD19 (1D3), anti-CD11b (M1/70), anti-Gr1 (RB6-8C5), anti-CD40 (3/23), and anti-Ly6C (AL-21). Anti-CD33 (29A1.4) was from Ebiosciences; anti-F4/80 (BM8) and anti-CD69 (H1.2F3) were from BioLegend. LIVE/DEAD Fixable Yellow Dead Cell Stain Kit or DAPI (both from Invitrogen) were used as cell viability markers in flow cytometry analyses. A minimum of 100,000 gated live cells were collected on a four-laser BD LSRFortessa (405, 488, 532, and 640 nm). Data were analyzed using FACSDiva Version 8.0.1 software (BD Biosciences).

[4] = tested on: ROS formation of lung cell suspensions; settings: mice pretreated with HDC the day before B16 inoculation; PMA; 30 minutes and 24 hours
Protocol: as §3, §4, §2

B16F10 cells = assay: Lung metastasis after i.v. inoculation of B16F10 melanoma cells; format: in vivo, mouse; settings: for number of lung metastases: 3 weeks
Protocol: as §1
Gr1^+ cells were depleted by i.p. injections of 400 μg anti-Gr1 antibody (BioXCell, Clone RB6-8C5) 2 days before B16 cell inoculation. […] NK cells were depleted by i.p. injections of 250 μg anti-NK1.1 antibody (BioXCell, Clone PK136) 4 days and 2 days before B16F10 cell inoculation.
Spleens were harvested from WT C57BL/6 mice and single-cell suspensions were prepared. Splenocytes were enriched for NK cells by passage through nylon wool columns (Polysciences). NK cells were then negatively selected using an NK-cell isolation kit II (Miltenyi Biotech) according to the manufacturer's instructions to a purity of >70%. Five million enriched NK cells were injected i.v. 12 hours before inoculation of B16F10 cells. WT NK cells in Ifng^−/− mice were detected 2 days after adoptive transfer by collecting peripheral blood followed by DNA extraction and PCR. The primer pair used for detection of WT Ifng was 5′ […] 3′ (SEQ ID NO:02) and 5′ […] 3′ (SEQ ID NO:03). For detection of the disrupted IFNγ gene (Ifng−/−) the primer pair 5′ […] 3′ (SEQ ID NO:04) and 5′ […] 3′ (SEQ ID NO:05) was used.

[5] = Nox2-KO mice, 150,000 B16F10 cells i.v., i.p. treatment days -1, 1, 3
[6] = WT mice, 100,000 B16F10 cells i.v., i.p. treatment days -1, 1, 3 (HDC 1,500 μg/mouse, IL15 0.04 μg/mouse)

Q: Which “metastasis of xenografted human melanoma cells” value [1] does the source give for CC(=O)N[C@@H](CS)C(=O)O [N-acetyl-cysteine] here?
A: The value was “accelerates the metastasis”.

Q: What about the tumor progression [2] of the same compound?
A: Its tumor progression is “accelerates tumor progression”.

Q: What about the “tumorigenicity of murine melanoma cells” value (murine melanoma cells) of the same compound?
A: The value was “reduces the tumorigenicity”.

Q: What about the lymph node metastasis (melanoma) of the same compound?
A: The lymph node metastasis was “enhances lymph node metastasis”.

Q: Which “ROS formation from WT lung cells” value [3] does the source give for Cl.Cl.NCCc1c[nH]cn1 [HDC, histamine dihydrochloride] here?
A: Its value is “dose-dependently suppressed”.

Q: What about the “lung metastasis formation by B16F1” value (B16F1 cells) of the same compound?
A: The value was “NOX2-dependent, antimetastatic effect”.

Q: And the “NK-cell counts in lungs” value (NK cells)?
A: The value was “increased NK-cell counts in lungs”.

Q: And the “IFNγ produced ex vivo by lung NK cells” value (lung NK cells)?
A: The value was “higher concentrations of IFNγ”.

Q: And the “degree of influx of myeloid cells into lungs” value (CD11b+Gr1+ myeloid cells)?
A: Its value is “did not alter”.

Q: And the “ROS formed ex vivo in lung cell suspensions” value [4]?
A: Its value is “reduced”.

Q: And the “subcutaneous growth of EL-4 thymoma tumors” value (EL-4 thymoma tumors; Nox2-KO mice)?
A: Its value is “but not in Nox2-KO mice”.

Q: And the “subcutaneous growth of EL-4 thymoma tumors” value (EL-4 thymoma tumors; WT mice)?
A: The value was “reduces the subcutaneous growth”.

Q: What about the lung metastasis (B16F10 cells; Gr1+-depleted WT mice, B16F10) of the same compound?
A: The lung metastasis was “did not affect metastasis”.

Q: And the “antimetastatic efficacy of HDC” value (B16F10 cells; Ifng-KO mice after adoptive transfer of IFNγ-producing WT NK cells)?
A: Its value is “significantly restored the antimetastatic efficacy”.

Q: What about the “antimetastatic efficacy of HDC” value (B16F10 cells; Ifng-KO mice after adoptive transfer of Ifng-KO NK cells) of the same compound?
A: Its value is “but not the transfer of Ifng-KO NK cells”.

Q: And the melanoma metastasis (B16F10 cells; Ifng-KO mice, B16F10)?
A: The melanoma metastasis was “did not reduce melanoma metastasis”.

Q: And the “number of lung metastases” value (B16F10 cells; [5])?
A: The value was “not observed”.

Q: What about the “number of lung metastases” value (B16F10 cells; [6]) of the same compound?
A: The value was “decreased the number of lung metastases”.

Q: What about the melanoma metastasis (B16F10 cells; animals depleted of NK cells (anti-NK1.1), WT and Nox2-/-, B16F10) of the same compound?
A: Its melanoma metastasis is “did not inhibit melanoma metastasis”.

Q: With IL15: NK cell-activating cytokine IL15 as the compound, how does the “number of lung metastases” value (B16F10 cells; [5]) read?
A: Its value is “exerted antimetastatic activity”.

Q: What about the “number of lung metastases” value (B16F10 cells; [6]) of the same compound?
A: The value was “exerted antimetastatic activity”.

Source: patent US20200399642A1, “METHODS AND COMPOSITIONS FOR TREATING AND PREVENTING METASTATIC TUMORS” (IMMUNE PHARMACEUTICALS, INC., priority 2017, published 2020)
